According to PMC6332220, “Synthesis, Characterization and Biological Evaluation of Some Quinoxaline Derivatives: A Promising and Potent New Class of Antitumor and Antimicrobial Agents” (Molecules, 2015):
Converted amounts (≈) assume the structure as drawn.

Columns and labels:
Aspergillus flavus = assay: Disk diffusion, Aspergillus flavus; format: cell-based; details: Fungi, 8.0 mm disks, 10 μL
Procedure: (§1) The disk diffusion method was used for determination of the antimicrobial activity using ampicillin, gentamicin and amphotericin B as reference drugs. The results were recorded for each compounds as the average diameter as inhibition zones (IZ) of bacterial or fungal growth around the discs in mm as shown in Table 2.
(§2) Antimicrobial activities were carried out against highly pathogenic strains; three strains of Gram positive bacteria (Bacillus subtilis, Staphylococcus aureus and Streptococcus faecalis), four strains of Gram negative bacteria (Escherichia coli, Neisseria gonorrhoeae, Pseudomonas aeruginosa and Salmonella typhimurium) and three fungi strains (Aspergillus flavus, Aspergillus fumigatus and Candida albicans) isolated from primary agar plates. Antimicrobial activity of the tested samples was determined using a modified Kriby-Bauer disk diffusion method. Briefly, 100 µL of the test bacteria/fungi were grown in 10 mL of fresh media until they reached a count approximately 10^8 cells/mL for bacteria or 10^5 cells/mL for fungi. 100 µL of microbial suspension was spread onto agar plates corresponding to the broth in which they were maintained. The inoculated plates of bacterial strains were incubated at 35–37 °C for 24–48 h, while the inoculated plates of fungal strains such as A. flavus and A. fumigatus were incubated at 25 °C for 48 h and yeast as C. albicans was incubated at 30 °C for 24–48 h.
(§3) The agar disk diffusion (qualitative) method was used in this investigation for determination of the preliminary antibacterial and antifungal activities. The agar used was Mueller-Hinton agar plates that are rigorously tested for composition and pH. Further the depth of the agar in the plate is a factor to be considered in the disk diffusion method.
(§4) Reference drugs: ampicillin was used as a standard antibacterial drug for Gram positive bacteria, gentamicin as a standard antibacterial drug for Gram negative bacteria and amphotericin B as antifungal standard drug.
(§5) Bacterial and fungal strains were spread onto the surface of the agar plates using sterile cotton swabs. For evaluation of antibacterial activities, blank paper disks (Schleicher & Schuell, Alicante, Spain) with a diameter of 8.0 mm were saturated with 10 μL of tested concentration of the stock solutions. Disks were dried and then placed onto inoculated agar plates. The plates of bacterial strains were reincubated at 35–37 °C for 24–48 h, while the plates of fungal strains such as A. flavus and A. fumigatus were reincubated at 25 °C for 48 h and yeast as C. albicans was reincubated at 30 °C for 24–48 h as mentioned above. […] For an accurate analysis, tests were run in triplicate for each strain to avoid any error as described in Table 2.
(§6) Disk diffusion method for filamentous fungi testing by using approved standard method (M02-A11) developed by the CLSI for evaluating the susceptibilities of filamentous fungi to antifungal agents. Disk diffusion method for yeasts developed by using approved standard method (M44-A2) by the CLSI [44]. Agar-based methods such as disk diffusion can be good alternatives because they are simpler and faster than broth-based methods.

Aspergillus fumigatus = assay: Disk diffusion, Aspergillus fumigatus; format: cell-based; details: Fungi, 8.0 mm disks, 10 μL
Procedure: as §1, §2, §3, §4, §5, §6

Candida albicans = assay: Disk diffusion, Candida albicans; format: cell-based; details: Fungi, 8.0 mm disks, 10 μL
Procedure: as §1, §2, §3, §4, §5, §6

Bacillus subtilis = assay: Disk diffusion, Bacillus subtilis; format: cell-based; details: Gram positive, 8.0 mm disks, 10 μL
Procedure: as §1, §2, §3, §4, §5

Staphylococcus aureus = assay: Disk diffusion, Staphylococcus aureus; format: cell-based; details: Gram positive, 8.0 mm disks, 10 μL
Procedure: as §1, §2, §3, §4, §5

Streptococcus faecalis = assay: Disk diffusion, Streptococcus faecalis; format: cell-based; details: Gram positive, 8.0 mm disks, 10 μL
Procedure: as §1, §2, §3, §4, §5

[1] = test system: MCF-7 (breast adenocarcinoma); assay: In vitro cytotoxicity, SRB cell growth assay, MCF-7; details: Homo sapiens, MCF7, 48 h, read-out: IC50 (μg/mL) MCF-7
Procedure: (§7) The in vitro cytotoxic activity of the newly synthesized compounds against human breast cell line (MCF7), non-small cell lung cancer NCIH460, CNS cancer SF-268 and WI 38 (normal fibroblast cells) were evaluated using doxorubicin as the reference drug according to the method reported by Skehan et al..
(§8) The newly synthesized compounds were evaluated in vitro against three human cancer cell lines; which are MCF-7 (breast adenocarcinoma), NCI-H460 (non-small cell lung cancer) and SF-268 (CNS cancer), and WI 38 (normal fibroblast cells) were used in this study. MCF-7 was obtained from the European Collection of Cell Cultures (ECACC, Salisbury, UK) but NCI-H460, SF-268 and WI 38 were kindly provided by the National Cancer Institute (NCI, Cairo, Egypt). They grow as monolayer and routinely maintained RPMI-1640 medium supplemented with 5% heat inactivated fetal bovine serum (FBS), 2 mM glutamine and antibiotics (penicillin 100 U/mL, streptomycin 100 µg/mL), at 37 °C in a humidified atmosphere containing 5% CO2. Exponentially growing cells were obtained by plating 1.5 × 10^5 cells/mL for MCF-7 and SF-268, and 0.75 × 10^4 cells/mL for NCI-H460 followed by 24 h of incubation. The effect of the vehicle solvent (DMSO) on the growth of these cell lines was evaluated in all experiments by exposing untreated control cells to the maximum concentration (0.5%) of DMSO used in each assay.
(§9) The effect of compounds on the in vitro growth of human tumor cell lines were evaluated according to the procedure adopted by the National Cancer Institute ([…]) in the “In vitro Anticancer Drug Discovery Screen” that uses the protein-binding dye sulforhodamine B (SRB) to assess cell growth. In the assay protocol, all cells were incubated at 37 °C under humidified atmosphere containing 5% CO2. Briefly, exponentially cells growing in 96-well plates were then exposed for 48 h to five serial concentrations of each compound, starting from a maximum concentration of 150 μg/mL. Following this exposure period adherent cells were fixed, washed and stained. The bound stain was solubilized and the absorbance was measured at 492 nm in a plate reader (Bio-Tek Instruments Inc., Power wave XS, Winston, NC, USA). For each test compound and cell line, a dose response curve was obtained and the inhibitory concentration of 50% (IC50), corresponding to the concentration of the compounds that inhibited 50% of the net cell growth was calculated as described elsewhere. Doxorubicin was used as a positive control and tested in the same manner.

[2] = test system: NCI-H460 (non-small cell lung cancer); assay: In vitro cytotoxicity, SRB cell growth assay, NCI-H460; details: Homo sapiens, NCI-H460, 48 h, read-out: IC50 (μg/mL) NCI-H460
Procedure: as §7, §8, §9

SF-268 (CNS cancer) = assay: In vitro cytotoxicity, SRB cell growth assay, SF-268; details: Homo sapiens, SF-268, 48 h, read-out: IC50 (μg/mL) SF-268
Procedure: as §7, §8, §9

[3] = test system: WI 38 (normal fibroblast cells); assay: In vitro cytotoxicity, SRB cell growth assay, normal cells WI 38; format: cell-based, human; details: 48 h exposure, non-cytotoxic = IC50 >100 μg/mL; for IC50: Homo sapiens, WI-38, 48 h
Procedure: as §7, §8, §9

Escherichia coli = assay: Disk diffusion, Escherichia coli; format: cell-based; details: Gram negative, 8.0 mm disks, 10 μL
Procedure: as §1, §2, §3, §4, §5

Neisseria gonorrhoeae = assay: Disk diffusion, Neisseria gonorrhoeae; format: cell-based; details: Gram negative, 8.0 mm disks, 10 μL
Procedure: as §1, §2, §3, §4, §5

Pseudomonas aeruginosa = assay: Disk diffusion, Pseudomonas aeruginosa; format: cell-based; details: Gram negative, 8.0 mm disks, 10 μL
Procedure: as §1, §2, §3, §4, §5

Salmonella typhimurium = assay: Disk diffusion, Salmonella typhimurium; format: cell-based; details: Gram negative, 8.0 mm disks, 10 μL
Procedure: as §1, §2, §3, §4, §5

Row | SMILES | Inhibition Zone Diameter (IZ) (mm) Aspergillus flavus (Aspergillus flavus) | Inhibition Zone Diameter (IZ) (mm) Aspergillus fumigatus (Aspergillus fumigatus) | Inhibition Zone Diameter (IZ) (mm) Candida albicans (Candida albicans) | Inhibition Zone Diameter (IZ) (mm) Bacillus subtilis (Bacillus subtilis) | Inhibition Zone Diameter (IZ) (mm) Staphylococcus aureus (Staphylococcus aureus) | Inhibition Zone Diameter (IZ) (mm) Streptococcus faecalis (Streptococcus faecalis) | IC50 [1] | IC50 [2] | IC50 (SF-268 (CNS cancer)) | IC50 [3] | Inhibition Zone Diameter (IZ) (mm) Escherichia coli (Escherichia coli) | Inhibition Zone Diameter (IZ) (mm) Neisseria gonorrhoeae (Neisseria gonorrhoeae) | Inhibition Zone Diameter (IZ) (mm) Pseudomonas aeruginosa (Pseudomonas aeruginosa) | Inhibition Zone Diameter (IZ) (mm) Salmonella typhimurium (Salmonella typhimurium) | melting point | IC50 (μg/mL) WI 38 [3]
1 | C[C@@H]1[C@H](O)[C@@H](C)/C=C/C=C/C=C/C=C/C=C/C=C/C=C/[C@H](O[C@@H]2O[C@H](C)[C@@H](O)[C@H](N)[C@@H]2O)C[C@@H]2O[C@](O)(C[C@@H](O)C[C@@H](O)[C@H](O)CC[C@@H](O)C[C@@H](O)CC(=O)O[C@H]1C)C[C@H](O)[C@H]2C(=O)O [Amphotericin B, reference compound] | 17 mm | 23 mm | 19 mm | – | – | – | – | – | – | – | – | – | – | – | – | –
2 | CC1(C)S[C@@H]2[C@H](NC(=O)[C@H](N)c3ccccc3)C(=O)N2[C@H]1C(=O)O [Ampicillin, reference compound] | – | – | – | 20 mm | 22 mm | 19 mm | – | – | – | – | – | – | – | – | – | –
3 | Cc1cc(C)n(-c2nc3cc(Br)ccc3nc2Cl)n1 [Compound 6, 6-Bromo-2-chloro-3-(3,5-dimethyl-1H-pyrazol-1-yl)quinoxaline] | R (R (IZ = 0 mm)) | R (R (IZ = 0 mm)) | R (R (IZ = 0 mm)) | 11 mm | 9 mm | 11 mm | 22.4 ± 10.4 µg/mL (≈ 66.4 µM) | 30.5 ± 10.8 µg/mL (≈ 90.3 µM) | 26.5 ± 2.87 µg/mL (≈ 78.5 µM) | 28.2 ± 0.87 µg/mL (≈ 83.7 µM) | 11 mm | 11 mm | 9 mm | 8 mm | 81 to 83 °C | –
4 | NNc1nc2cc(Br)ccc2n2nnnc12 [Compound 7, 7-Bromo-4-hydrazinyltetrazolo[1,5-a]quinoxaline] | R (R (IZ = 0 mm)) | R (R (IZ = 0 mm)) | R (R (IZ = 0 mm)) | 11 mm | 10 mm | 11 mm | 26.4 ± 2.1 µg/mL (≈ 94.3 µM) | 12.4 ± 3.01 µg/mL (≈ 44.3 µM) | 10.6 ± 2.83 µg/mL (≈ 38 µM) | – | 10 mm | 10 mm | 10 mm | 9 mm | 237 to 239 °C | non-cytotoxic
5 | Clc1ccc(C=NNc2nc3cc(Br)ccc3nc2Cl)cc1 [Compound 8, 6-Bromo-2-chloro-3-[2-(4-chlorobenzylidene)hydrazinyl]quinoxaline] | R (R (IZ = 0 mm)) | R (R (IZ = 0 mm)) | R (R (IZ = 0 mm)) | 9 mm | 9 mm | 10 mm | 42.2 ± 2.46 µg/mL (≈ 106 µM) | 26.6 ± 2.63 µg/mL (≈ 67.2 µM) | 35.3 ± 12.8 µg/mL (≈ 89.2 µM) | 10.6 ± 5.51 µg/mL (≈ 26.7 µM) | 11 mm | 9 mm | 9 mm | 7 mm | 187 to 189 °C | –
6 | Cc1c[nH]nc2c3n[nH]cc(C)n-3c3cc(Br)ccc3n1-2 [Compound 12, 7-Bromo-4,11-dimethyl-2,13-dihydrobis[1,2,4]triazino[4,3-a:3',4'-c]quinoxaline] | R (R (IZ = 0 mm)) | R (R (IZ = 0 mm)) | R (R (IZ = 0 mm)) | 18 mm | 19 mm | 18 mm | 35.2 ± 4.18 µg/mL (≈ 102 µM) | 34 ± 6.05 µg/mL (≈ 98.6 µM) | 22.1 ± 2.81 µg/mL (≈ 64 µM) | 23 ± 8.2 µg/mL (≈ 66.5 µM) | 17 mm | R (R (IZ = 0 mm)) | 20 mm | 18 mm | – | –
7 | Cc1cc(C)n(-c2nc3ccc(Br)cc3nc2-n2nc(C)cc2C)n1 [Compound 15, 6-Bromo-2,3-bis(3,5-dimethyl-1H-pyrazol-1-yl)quinoxaline] | R (R (IZ = 0 mm)) | R (R (IZ = 0 mm)) | R (R (IZ = 0 mm)) | 10 mm | 9 mm | 9 mm | 28.4 ± 5.8 µg/mL (≈ 71.5 µM) | 22.7 ± 8.12 µg/mL (≈ 57.2 µM) | 30.2 ± 2.04 µg/mL (≈ 76.1 µM) | 18.2 ± 4.03 µg/mL (≈ 45.7 µM) | 10 mm | 9 mm | 9 mm | 10 mm | – | –
8 | COc1cccc2c1C(=O)c1c(O)c3c(c(O)c1C2=O)C[C@@](O)(C(=O)CO)C[C@@H]3O[C@H]1C[C@H](N)[C@H](O)[C@H](C)O1 [Doxorubicin, reference compound] | – | – | – | – | – | – | 0.04 ± 0.008 µg/mL (≈ 0.0736 µM) | 0.09 ± 0.008 µg/mL (≈ 0.166 µM) | 0.09 ± 0.007 µg/mL (≈ 0.166 µM) | – | – | – | – | – | – | non-cytotoxic
9 | CNC(C)C1CCC(N)C(OC2C(N)CC(N)C(OC3OCC(C)(O)C(NC)C3O)C2O)O1 (stereo not drawn) [Gentamicin, reference compound] | – | – | – | – | – | – | – | – | – | – | 20 mm | 18 mm | 17 mm | 23 mm | – | –
